Assay results published in patent US20020052316A1, “Bax-mediated apoptosis modulating reagents and methods” (priority 1998, published 2002).
Residues, ends and D or L forms follow the SMILES beside them. *: point of attachment. Cbz = O=C(OCc1ccccc1)*; CH2F = FC*

Assays:
FL5.12 cells = test: BAX integration into mitochondrial membrane of FL5.12 cells after IL-3 withdrawal (alkali extraction, anti-BAX Western blot); format: cell-based; details: FL5.12 cells deprived of IL-3 for 12 hours, 50 mM zVAD-fmk
Procedure: In the absence of a death signal during apoptosis of a cell, BAX is found free in the cytosol of the cell or is peripherally associated with endocellular membrane surfaces. We performed a Western blotting analysis of mitochondrial membranes from FL5.12 cells, immunoblotting anti-BAX antibodies (antibodies commercially available from, for example, Santa Cruz Biotech., Santa Cruz, Calif.; FIG. 1). Briefly, the mitochondrial fraction was prepared from FL5.12 cells maintained in IL-3 (FIG. 1, lanes 1, 2, 5, and 6) or deprived of IL-3 for 12 hours (FIG. 1, lanes 3, 4, 7, and 8), in the absence (FIG. 1, lanes 1, 3, 5, and 7) or presence (FIG. 1, lanes 2, 4, 6, and 8) of […] zVAD-fmk for 12 hours by centrifuging at 200,000×g for 45 min. to yield supernatant and pellet fractions (the pellet fraction contains the mitochondrial membranes). The mitochondrial fractions were analyzed either directly (FIG. 1, lanes 1-4) or following extraction with 0.1 M Na2CO3, pH 11.5 (FIG. 1, lanes 5-8).
Cells were collected, washed twice with phosphate buffered saline, suspended in 2 ml HIM buffer (0.2% w/v BSA, 200 mM mannitol, 70 mM sucrose, 10 mM HEPES-KOH, 1 mM EGTA, pH 7.5), and subjected to homogenization with a Polytron homogenizer (Brinkmann Instruments Inc., Westbury, N.Y.) for 4 bursts of 10 seconds each at a setting of 6.5. All subsequent steps were conducted at 4° C. […]

[1] = test system: intact mitochondria isolated from rat heart; test: Mitochondrial protein targeting in vitro (35S-labelled reticulocyte lysate translation products, alkali-resistant insertion); format: biochemical; parameters: BAX targeting supported by apoptotic high speed cytosol / mitochondrial membrane insertion of BAX with additional cytochrome c: dose or concentration left out as unconfirmed
Description: To examine targeting of BAX into mitochondria in vitro, we employed the ^35S-labelled transcription-translation product of BAX cDNA in rabbit reticulocyte lysate combined with intact mitochondria isolated from rat heart. This is a well documented system that faithfully reflects in vivo import of diverse mitochondrial proteins, including the insertion of integral proteins into the mitochondrial outer membrane (Li and Shore, Science 256:1815-1817, 1992; McBride et al., J. Cell Biol. 119:1451-1457, 1992).
The results of our investigation as to whether or not apoptotic cell extract supports BAX targeting to mitochondria in vitro are presented in FIGS. 3A-3D. Briefly, in the experiments were conducted as follows. In FIG. 3A, ^35S-labeled transcription-translation products of BAX cDNA in rabbit reticulocyte lysate (BAX and BAXΔART) were incubated with purified, intact mitochondria from rat heart in a standard protein import reaction supplemented with 1 mM dATP (FIG. 3A, lanes 3, 4, 6, and 7) or 1 mM dATP and […] apoptotic cytosol protein (Extract) (FIG. 3A, lanes 4 and 7), in a volume of […]. At the end of the reaction, mitochondria were recovered by centrifugation and the pellets analyzed by SDS PAGE and fluorography either directly or after extraction with […], pH 11.5 (Alkali) (FIG. 3A, lanes 5-7).
The heart of one male Sprague Dawley rat (approximately 250 grams) was placed in approximately 100 ml HIM buffer (0.2% w/v BSA, 200 mM mannitol, 70 mM sucrose, 10 mM HEPES-KOH, 1 mM EGTA, pH 7.5) on ice, squeezed several times to force out blood, and transferred to 7.5 ml HIM in a 15-ml corex tube. All subsequent steps were conducted at 4° C. The heart was homogenized with a Polytron homogenizer (Brinkmann Instruments Inc., Westbury, N.Y.) operating for 1 second at setting 6.5. Nuclei and unbroken cells were pelleted at 1800 rpm for 10 min. in a Sorvall SS34 rotor. The supernatant was centrifuged for 10 min. at 7000 rpm. The resulting pellet was resuspended in HIM (minus BSA), centrifuged at 1800 rpm and the mitochondria were collected at 7000 rpm. The mitochondrial pellet was resuspended in cMRM (250 mM sucrose, 10 mM HEPES-KOH, 1 mM ATP, 5 mM Na Succinate, 0.08 mM ADP, 2 mM K2HPO4, pH 7.5) at a concentration of 1 mg of mitochondrial protein per ml, and adjusted to 1 mM dithiothreitol just before use.
cDNAs were transcribed and translated in the presence of ^35S-methionine in a cell-free rabbit reticulocyte lysate system (Promega Corp., Madison, Wis.) according to the manufacturer's directions. For a standard mitochondrial protein import reaction, 5 μl of translation reaction was incubated with 20 μl of Buffer A (20 mM HEPES-KOH, 10 mM KCl, 2.5 mM MgCl2, 1 mM EDTA, 1 mM EGTA, 1 mM dithiothreitol, pH 7.5) and 25 μl mitochondria or mitoplasts in cMRM (1 mg protein / ml) at 30° C or 37° C. for 30 min. to 2 hours. The import reaction was then layered on a 500 μl cushion of 1×MRM (250 mM sucrose, 10 mM HEPES-KOH, pH 7.5) and centrifuged for 4 min. at top speed in a microfuge at 4° C. For alkali extraction, the mitochondrial pellet was resuspended (0.25 mg protein / ml) in freshly prepared 0.1 M Na2CO3, pH 11.5, and incubated for 30 min. on ice. The membranes were then pelleted in an airfuge (commercially available from Beckman Instruments Canada Inc., Montreal, PQ, Canada) operating for 10 min. at 30 psi. The pellet was analyzed by SDS-PAGE and fluorography. […]

[2] = test system: caspases of KB apoptotic cell extract (24 kDa PARP cleavage product); test: Poly(ADP ribosyl) polymerase (PARP) cleavage by KB apoptotic cell extract; format: biochemical, human; parameters: ability of the extract to drive PARP cleavage: dose or concentration left out as unconfirmed
Procedure: In FIG. 3C, ^35S-labeled transcription-translation product of PARP cDNA in reticulocyte lysate (5% by volume) was incubated with (FIG. 3C, lanes 2 and 3) or without (FIG. 3C, lane 1) […] apoptotic cytosol protein in a total volume of […], in the presence (FIG. 3C, lane 3) or absence (FIG. 3C, lanes 1 and 2) of 1 mM dATP, and equivalent portions analyzed for the appearance of the 24 kDa cleavage product of poly(ADP ribosyl) polymerase (24 K PARP) by 12% SDS PAGE and fluorography.
Extract was prepared at 4° C. according to the procedure of Liu et al. (supra) with some minor modifications. Briefly, human KB epithelial cells were harvested in PBS containing 1.3 mM Na citrate and 0.6 mM EDTA. The cell pellet was washed in Buffer A/ext (50 mM PIPES, 50 mM KCl, 5 mM EGTA, 2 mM MgCl2, 1 mM dithiothreitol, 20 μM cytochalasin B, pH 7.4), then resuspended in an equal volume of Buffer A/ext. The cells were disrupted by 5 cycles of freeze-thaw interspersed by 5 strokes with a Wheaton glass homogenizer fitted with a B pestle, and centrifuged at […] for 1 hour in a Beckman Ti75 rotor. The resulting supernatant contained 10 mg protein / ml. […]

COS-7 and CHO cells = test: Immunofluorescence microscopy with anti-HA antibody of transfected cells; format: cell-based; details: 24 hours
Description: Thus, the enhanced cytotoxicity of HA-BAXΔART compared to HA-BAX in vivo correlates with inhibition of BAX membrane integration by the ART domain in vitro.

[3] = zVAD-fmk added before dATP and incubation at 37° C.
[4] = extract depleted of cytochrome c by immunoadsorption

With `COC(=O)C[C@H](NC(=O)[C@H](C)NC(=O)[C@@H](NC(=O)OCc1ccccc1)C(C)C)C(=O)CF` [zVAD-fmk, reference compound] (Cbz-Val-Ala-Asp(OMe)-CH2F) the “BAX integration into mitochondrial membrane in response to IL-3 withdrawal” value (FL5.12 cells; alkaline-resistant BAX) was “partly blocked”, the “recovery of total BAX associated with mitochondria” value (FL5.12 cells; no alkali extraction) was “did not significantly influence” and the “BAX targeting supported by apoptotic high speed cytosol” value [1, 3] was “effectively inhibit”. The “ability of the extract to drive PARP cleavage” value [2, 3] was “abolished”.
“cytochrome c: cytochrome c protein added to apoptotic cell extract or reticulocyte lysate” was tested, and the “mitochondrial membrane insertion of BAX with additional cytochrome c” value ([1]; cytochrome c added to apoptotic cytosol) was “No improvement”, the “BAX targeting after add-back to cytochrome c depleted extract” value [1, 4] was “re-instated” and the “BAX targeting with cytochrome c alone” value ([1]; reticulocyte lysate translation mixtures, no extract) was “failed to stimulate”. The “PARP cleavage after add-back to cytochrome c depleted extract” value [2, 4] was “re-instated”.
With “HA-BAX: hemagglutinin epitope tagged BAX expressed by transfection” the “cells expressing the HA-tagged protein” value (COS-7 and CHO cells) was 7.5%.
For “BAX: full length murine BAX proapoptotic protein, translated in rabbit reticulocyte lysate”, the “mitochondrial targeting / membrane integration in vitro” value ([1]; absence of apoptotic cell extract, resistance to extraction at alkaline pH) was “failed to target mitochondria”.
